≈ marks a conversion by molar mass, not a printed value. Entries after “also recorded” stand apart in the source; their conditions may differ.
Key:
α-glucosidase [1] = experiment: In vitro α-glucosidase inhibition assay (pNPG substrate); type: biochemical, Saccharomyces Cerevisiae; conditions: for IC50: means ± SEM of triplicate
Procedure: The α-glucosidase inhibition assay was performed as described previously. In summary, the stock solution of the enzyme from Saccharomyces Cerevisiae (0.2 U/mL) was prepared in 0.05 M sodium phosphate buffer pH 6.8. […] After incubation, 10 µL of the substrate, p-nitrophenyl α-D-glucopyranoside (pNPG, 5 mM solution in 0.05 M phosphate buffer) was added to the aboveprepared mixture and incubated again under the same experimental conditions. The reaction was stopped with the addition of 0.1 M Na2CO3 and OD405 was taken by a 96-well ELISA reader. The experiment was performed in triplicate.

P. aeruginosa (DR) = experiment: Antibacterial activity, minimum inhibitory concentration; type: cell-based; design: key: R: resistant; S: sensitive
Procedure: (§1) The prepared azo derivatives were screened for their antibacterial activity against six bacterial strains obtained from hospital isolates i.e. gram positive (S. aureus, S. aureus (DR)) and gram-negative (E. coli, P. aeruginosa, P. aeruginosa (DR), P. vulgaris). All the strains were confirmed by biochemical identification and drug susceptibility methods. The antibacterial evaluation was done by agar disc diffusion method[39]^,[40] and MIC was determined. In summary, a 48-h old inoculum having ∼0.48 OD600, of the above-mentioned bacterial strains was spread on the solidified trypticase soy agar media and Whatman no. 1 filter paper discs (5 mm in diameter) soaked with the title compounds (10 µL/disc of 10 mg/mL) were placed on the plates. Ampicillin and moxifloxacin were used as positive controls and DMSO as negative control respectively.

E. coli = experiment: as above; type: cell-based; design: key: R: resistant; S: sensitive
Procedure: as §1

P. aeruginosa (DS) = experiment: as above; type: cell-based; design: key: R: resistant; S: sensitive
Procedure: as §1

P. vulgaris = experiment: as above; type: cell-based; design: key: R: resistant; S: sensitive
Procedure: as §1

S. aureus (DS) [2] = experiment: as above; type: cell-based; design: key: R: resistant; S: sensitive
Procedure: as §1

S. aureus (DR) = experiment: as above; type: cell-based; design: key: R: resistant; S: sensitive
Procedure: as §1

[3] = test system: screened pathogens (S. aureus, P. aeruginosa, E. coli and P. vulgaris); experiment: Antibacterial activity, average MIC over screened pathogens; type: cell-based
Procedure: as §1, with “All the strains were confirmed by biochemical identification and drug susceptibility methods.” left out, “plates.” for “plates. Ampicillin and moxifloxacin were used as positive controls and DMSO as negative control respectively.”

α-glucosidase [4] = experiment: Kinetic analysis and inhibition mechanism of α-glucosidase inhibition; type: biochemical, Saccharomyces Cerevisiae
Procedure: The potential inhibitor with concentrations 0.00, 0.062, 0.125, 0.25, 0.5 mM was selected for kinetic studies. The substrate (pNPG) concentration was optimised from 5 to 40 mM in all kinetic studies. Pre-incubation and measurement time was the same as discussed in α-glucosidase inhibition assay. The assay was continuously monitored at 405 nm for 5 min at 30 s intervals in the microplate reader after the addition of the enzyme. The inhibition type on the enzyme was assayed by Lineweaver–Burk plots of the inverse of velocities (1/V) versus the inverse of substrate concentration 1/[S] mM^−1, and the inhibition constant Ki was determined by two ways (Dixon plot of 1/V versus inhibitor concentrations) as well as secondary replot of slope versus inhibitor concentrations from Lineweaver–Burk plot.
The plot of the remaining enzyme activity versus the concentrations of the enzyme at different inhibitor concentrations (0.00, 0.062, 0.125, 0.25 and 0.5 mM) was calculated.

S. aureus (DS) [5] = experiment: Antibiofilm assay (crystal violet); type: cell-based; conditions: 0.5 mg/mL
Procedure: The antibiofilm activity of the synthesised azo derivatives was assessed by microtitre plate-based crystal violet method[44] against respective bacterial strains i.e. gram-positive (S. aureus, S. aureus (DR)) and gram-negative (P. aeruginosa, P. aeruginosa (DR)). In brief, 10 µL bacterial suspension, 100 µL trypticase soy broth and 10 µL (10 mg/mL) of test compounds were added in the wells in duplicates and incubated at 37 °C overnight. Ampicillin and moxifloxacin were used as positive controls. After the aspiration of planktonic cells, the biofilm was fixed with 99% methanol. The wells were then washed with 0.1 M sterile PBS (pH = 6.9) thrice and air-dried. Then, 200 µL of crystal violet solution (2%) was added to all wells. After 15 min, the excess of the crystal violet dye was removed and the wells were washed again with PBS. Then, the cell-bound crystal violet was dissolved in 33% acetic acid. The biofilm growth was quantified in terms of OD575 nm using an ELISA plate reader and biofilm hydrolysis was calculated by % inhibition formula.

Row | Compound | % Inhibition (α-glucosidase [1]; 15.62 µg/mL) [%] | % Inhibition (α-glucosidase [1]; 31.2 µg/mL) [%] | % Inhibition (α-glucosidase [1]; 125 µg/mL) [%] | % Inhibition (α-glucosidase [1]; 250 µg/mL) [%] | IC50 (α-glucosidase [1]) [µg/mL] | Minimum inhibitory concentration: sensitive/resistant (P. aeruginosa (DR); 125 µg/200 µL) | Minimum inhibitory concentration: sensitive/resistant (P. aeruginosa (DR); 250 µg/200 µL) | Minimum inhibitory concentration: sensitive/resistant (E. coli; 125 µg/200 µL) | Minimum inhibitory concentration: sensitive/resistant (E. coli; 250 µg/200 µL) | Minimum inhibitory concentration: sensitive/resistant (P. aeruginosa (DS); 125 µg/200 µL) | Minimum inhibitory concentration: sensitive/resistant (P. aeruginosa (DS); 250 µg/200 µL) | Minimum inhibitory concentration: sensitive/resistant (P. vulgaris; 125 µg/200 µL) | Minimum inhibitory concentration: sensitive/resistant (P. vulgaris; 250 µg/200 µL) | Minimum inhibitory concentration: sensitive/resistant (S. aureus (DS) [2]; 125 µg/200 µL) | Minimum inhibitory concentration: sensitive/resistant (S. aureus (DS) [2]; 250 µg/200 µL) | Minimum inhibitory concentration: sensitive/resistant (S. aureus (DR); 125 µg/200 µL) | Minimum inhibitory concentration: sensitive/resistant (S. aureus (DR); 250 µg/200 µL) | MIC (average value) [3] [µg/200 µL] | other results
1 | 4-((2-chloropyridin-3-yl)diazenyl)naphthalen-2-ol [TR-9] | 22 | 39 | 63 | 78 | 54.4 ± 3.3 | R | R | R | R | R | S | R | R | R | R | S | S |  | 
2 | C[C@H]1O[C@H](O[C@H]2[C@H](O)[C@@H](O)[C@@H](O[C@H]3[C@H](O)[C@@H](O)C(O)O[C@@H]3CO)O[C@@H]2CO)[C@H](O)[C@@H](O)[C@@H]1N[C@H]1C=C(CO)[C@@H](O)[C@H](O)[C@H]1O (some centres unmarked) [Acarbose, reference compound] | 40 | 62 | 85 | 92 |  |  |  |  |  |  |  |  |  |  |  |  |  |  | 
3 | CC1(C)S[C@@H]2[C@H](NC(=O)[C@H](N)c3ccccc3)C(=O)N2[C@H]1C(=O)O [Ampicillin, reference compound] |  |  |  |  |  |  |  | S | S | S | S | S | S | S | S |  |  | 62.5 | 
4 | COc1c(N2C[C@@H]3CCCN[C@@H]3C2)c(F)cc2c(=O)c(C(=O)O)cn(C3CC3)c12 [Moxifloxacin, reference compound] |  |  |  |  |  | S | S |  |  |  |  |  |  |  |  | S | S |  | 
5 | O=[N+]([O-])c1ccc(/N=N/c2ccc(O)cc2O)cc1 [TR-1, (E)-4-((4-nitrophenyl)diazenyl)benzene-1,3-diol] | 49 | 68 | 88 | 95 | 15.70 ± 1.3 (≈ 60.6 µM) | S | S | S | S | R | R | S | S | S | S | R | R | 125 | Ki (α-glucosidase [4]; EI dissociation constant, Dixon plot and secondary replot): 220 µM; Inhibition type (α-glucosidase [4]; Lineweaver–Burk plot): Non-competitive; Km (α-glucosidase [4]; inhibitor dose 0.062 mM): 20 mM; Vmax (α-glucosidase [4]; inhibitor dose 0.062 mM): 0.166 ΔA/S; Km (α-glucosidase [4]; inhibitor dose 0.125 mM): 20 mM; Vmax (α-glucosidase [4]; inhibitor dose 0.125 mM): 0.125 ΔA/S; Km (α-glucosidase [4]; inhibitor dose 0.25 mM): 20 mM; Vmax (α-glucosidase [4]; inhibitor dose 0.25 mM): 0.090 ΔA/S; Km (α-glucosidase [4]; inhibitor dose 0.50 mM): 20 mM; Vmax (α-glucosidase [4]; inhibitor dose 0.50 mM): 0.071 ΔA/S; Inhibition (reversibility) (α-glucosidase [4]; remaining enzyme activity versus enzyme concentration): reversibly; also recorded: reversible; biofilm inhibition (S. aureus (DS) [5]): greater than 70%
6 | O=[N+]([O-])c1ccc(/N=N/c2ccc(O)c3ccccc23)cc1 [TR-2, (E)-4-((4-nitrophenyl)diazenyl)naphthalen-1-ol] | 16 | 30 | 55 | 60 | 110.2 ± 7.8 (≈ 376 µM) | R | R | R | S | R | S | R | R | R | R | S | S |  | 
7 | O=[N+]([O-])c1ccc(/N=N/c2c(O)ccc3ccccc23)cc1 [TR-3, (E)-1-((4-nitrophenyl)diazenyl)naphthalen-2-ol] | 12 | 25 | 54 |  | 116.9 ± 8.6 (≈ 399 µM) | R | R | R | R | R | S | R | R | R | R | R | R |  | melting point: 245 to 252 °C; biofilm inhibition (S. aureus (DS) [5]): greater than 70%
8 | (E)-4-(p-tolyldiazenyl)benzene-1,3-diol [TR-6] | 22 | 38 | 63 | 87 | 53.7 ± 3.2 | R | R | R | S | S | S | S | S | S | S | S | S | 125 | 
9 | (E)-4-(p-tolyldiazenyl)naphthalen-1-ol [TR-4] | 7 | 13 | 35 | 43 |  | S | S | R | R | S | S | S | S | S | S | S | S | 125 | 
